# Results reported in patent US8846928B2 (Portola Pharmaceuticals, Inc., priority 2010, dated 2014).
# Target: T1, full length active recombinant SYK enzyme (Homo sapiens, UniProt P43405)
# T1 construct: full length active recombinant SYK enzyme (Millipore, Calif.); purchased Millipore
# Test: Inhibition of Syk tyrosine phosphorylation activity (LANCE TR-FRET kinase assay)
# Assay type: biochemical
row,IC50 [nM],SMILES
1,1 to 10,"NC(=O)c1ccc(N[C@@H]2CCCC[C@@H]2N)nc1Nc1cccc(-n2cccn2)c1 [Example 192, 2-(3-(1H-pyrazol-1-yl)phenylamino)-6-((1R,2S)-2-aminocyclohexylamino)nicotinamide]"
2,10 to 100,"NC(=O)c1cc(F)c(N[C@@H](C(N)=O)C2CC2)nc1Nc1cnc2ccccc2c1 [Example 196, (R)-6-(2-amino-1-cyclopropyl-2-oxoethylamino)-5-fluoro-2-(quinolin-3-ylamino)nicotinamide]"
3,10 to 100,"Cc1cc(Nc2nc(N[C@@H](C(N)=O)C3CC3)c(F)cc2C(N)=O)sn1 [Example 198, (R)-6-(2-amino-1-cyclopropyl-2-oxoethylamino)-5-fluoro-2-(3-methylisothiazol-5-ylamino)nicotinamide]"
4,1 to 10,"CCC[C@@H](Nc1nc(Nc2cnc3ccccc3c2)c(C(N)=O)cc1F)C(N)=O [Example 199, (R)-6-(1-amino-1-oxopentan-2-ylamino)-5-fluoro-2-(quinolin-3-ylamino)nicotinamide]"
5,10 to 100,CCC[C@@H](Nc1nc(Nc2ccc3ncccc3c2)c(C(N)=O)cc1F)C(N)=O [Example 200]
6,100 to 1000,"CCC[C@@H](Nc1nc(Nc2ccc3cccnc3c2)c(C(N)=O)cc1F)C(N)=O [Example 201, (R)-6-(1-amino-1-oxopentan-2-ylamino)-5-fluoro-2-(quinolin-7-ylamino)nicotinamide]"
7,10 to 100,"CCC[C@@H](Nc1nc(Nc2cc(C)ns2)c(C(N)=O)cc1F)C(N)=O [Example 202, (R)-6-(1-amino-1-oxopentan-2-ylamino)-5-fluoro-2-(3-methylisothiazol-5-ylamino)nicotinamide]"
8,1 to 10,"CC[C@@H](Nc1ccc(C(N)=O)c(Nc2cnc3ccccc3c2)n1)C(N)=O [Example 203, (R)-6-(1-amino-1-oxobutan-2-ylamino)-2-(quinolin-3-ylamino)nicotinamide]"
9,10 to 100,"CC[C@@H](Nc1ccc(C(N)=O)c(Nc2ccc3cccnc3c2)n1)C(N)=O [Example 204, (R)-6-(1-amino-1-oxobutan-2-ylamino)-2-(quinolin-7-ylamino)nicotinamide]"
10,1 to 10,"CC[C@@H](Nc1ccc(C(N)=O)c(Nc2ccc3ncccc3c2)n1)C(N)=O [Example 205, (R)-6-(1-amino-1-oxobutan-2-ylamino)-2-(quinolin-6-ylamino)nicotinamide]"
11,10 to 100,"CC[C@@H](Nc1ccc(C(N)=O)c(Nc2ccc3ncsc3c2)n1)C(N)=O [Example 206, (R)-6-(1-amino-1-oxobutan-2-ylamino)-2-(benzo[d]thiazol-6-ylamino)nicotinamide]"
12,10 to 100,"CC[C@@H](Nc1ccc(C(N)=O)c(Nc2ccc3scnc3c2)n1)C(N)=O [Example 207, (R)-6-(1-amino-1-oxobutan-2-ylamino)-2-(benzo[d]thiazol-5-ylamino)nicotinamide]"
13,10 to 100,"CC[C@@H](Nc1ccc(C(N)=O)c(Nc2ccc3c(ccn3C)c2)n1)C(N)=O [Example 208, (R)-6-(1-amino-1-oxobutan-2-ylamino)-2-(1-methyl-1H-indol-5-ylamino)nicotinamide]"
14,10 to 100,"CC[C@@H](Nc1ccc(C(N)=O)c(Nc2cccc3c2ccn3C)n1)C(N)=O [Example 209, (R)-6-(1-amino-1-oxobutan-2-ylamino)-2-(1-methyl-1H-indol-4-ylamino)nicotinamide]"
15,10 to 100,CC[C@@H](Nc1ccc(C(N)=O)c(Nc2cc(C)ns2)n1)C(N)=O [Example 210]
16,10 to 100,"Cc1cc(Nc2nc(N[C@H](CC3CC3)C(N)=O)ccc2C(N)=O)sn1 [Example 211, (R)-6-(1-amino-3-cyclopropyl-1-oxopropan-2-ylamino)-2-(3-methylisothiazol-5-ylamino)nicotinamide]"
17,1 to 10,"NC(=O)c1ccc(N[C@H](CC2CC2)C(N)=O)nc1Nc1cnc2ccccc2c1 [Example 212, (R)-6-(1-amino-3-cyclopropyl-1-oxopropan-2-ylamino)-2-(quinolin-3-ylamino)nicotinamide]"
18,1 to 10,"NC(=O)c1ccc(N[C@H](CC2CC2)C(N)=O)nc1Nc1ccc2ncccc2c1 [Example 213, (R)-6-(1-amino-3-cyclopropyl-1-oxopropan-2-ylamino)-2-(quinolin-6-ylamino)nicotinamide]"
19,10 to 100,"NC(=O)c1ccc(N[C@H](CC2CC2)C(N)=O)nc1Nc1ccc2cccnc2c1 [Example 214, (R)-6-(1-amino-3-cyclopropyl-1-oxopropan-2-ylamino)-2-(quinolin-7-ylamino)nicotinamide]"
20,10 to 100,"Cc1cc(Nc2cc(N[C@@H](C(N)=O)C3CC3)c(F)cc2C(N)=O)sn1 [Example 215, (R)-4-(2-amino-1-cyclopropyl-2-oxoethylamino)-5-fluoro-2-(3-methylisothiazol-5-ylamino)benzamide]"

row,IC50 [nM],SMILES
1,10 to 100,"CC[C@@H](Nc1nc(Nc2cnc3ccccc3c2)c(C(N)=O)cc1F)C(N)=O [Example 227, (R)-6-(1-amino-1-oxobutan-2-ylamino)-5-fluoro-2-(quinolin-3-ylamino)nicotinamide]"
2,10 to 100,"CC[C@@H](Nc1nc(Nc2cnc3ncccc3c2)c(C(N)=O)cc1F)C(N)=O [Example 228, (R)-6-(1-amino-1-oxobutan-2-ylamino)-5-fluoro-2-(1,8-naphthyridin-3-ylamino)nicotinamide]"
3,10 to 100,"CC[C@@H](Nc1nc(Nc2ccc3nccn3c2)c(C(N)=O)cc1F)C(N)=O [Example 229, (R)-6-(1-amino-1-oxobutan-2-ylamino)-5-fluoro-2-(H-imidazo[1,2-a]pyridin-6-ylamino)nicotinamide]"
4,100 to 1000,"CC[C@@H](Nc1nc(Nc2ccn3ccnc3c2)c(C(N)=O)cc1F)C(N)=O [Example 230, (R)-6-(1-amino-1-oxobutan-2-ylamino)-5-fluoro-2-(H-imidazo[1,2-a]pyridin-7-ylamino)nicotinamide]"
5,10 to 100,"CC[C@@H](Nc1nc(Nc2cccc(OC)c2)c(C(N)=O)cc1F)C(N)=O [Example 231, (R)-6-(1-amino-1-oxobutan-2-ylamino)-5-fluoro-2-(3-methoxyphenylamino)nicotinamide]"
6,100 to 1000,"CC[C@@H](Nc1nc(Nc2cncc(OC)c2)c(C(N)=O)cc1F)C(N)=O [Example 232, (R)-6-(1-amino-1-oxobutan-2-ylamino)-5-fluoro-2-(5-methoxypyridin-3-ylamino)nicotinamide]"
7,1 to 10,"CC[C@@H](Nc1nc(Nc2ccc3ccccc3c2)c(C(N)=O)cc1F)C(N)=O [Example 233, (R)-6-(1-amino-1-oxobutan-2-ylamino)-5-fluoro-2-(naphthalen-2-ylamino)nicotinamide]"
8,10 to 100,"CC[C@@H](Nc1nc(Nc2ccc3ncsc3c2)c(C(N)=O)cc1F)C(N)=O [Example 234, (R)-6-(1-amino-1-oxobutan-2-ylamino)-5-fluoro-2-(benzo[d]thiazol-6-ylamino)nicotinamide]"
9,10 to 100,"CC[C@@H](Nc1nc(Nc2cncc(C)c2)c(C(N)=O)cc1F)C(N)=O [Example 235, (R)-6-(1-amino-1-oxobutan-2-ylamino)-5-fluoro-2-(5-methylpyridin-3-ylamino)nicotinamide]"
10,100 to 1000,"CC[C@@H](Nc1nc(Nc2cnc3cccnc3c2)c(C(N)=O)cc1F)C(N)=O [Example 236, (R)-6-(1-amino-1-oxobutan-2-ylamino)-5-fluoro-2-(1,5-naphthyridin-3-ylamino)nicotinamide]"
11,100 to 1000,"CC[C@@H](Nc1nc(Nc2ccc3c(c2)OCO3)c(C(N)=O)cc1F)C(N)=O [Example 237, (R)-6-(1-amino-1-oxobutan-2-ylamino)-5-fluoro-2-(benzo[d][1,3]dioxol-5-ylamino)nicotinamide]"
12,10 to 100,"CC[C@@H](Nc1nc(Nc2cc(C)ns2)c(C(N)=O)cc1F)C(N)=O [Example 239, (R)-6-(1-amino-1-oxobutan-2-ylamino)-5-fluoro-2-(3-methylisothiazol-5-ylamino)nicotinamide]"
13,100 to 1000,"CC[C@@H](Nc1nc(Nc2cccc3c2cnn3C)c(C(N)=O)cc1F)C(N)=O [Example 240, (R)-6-(1-amino-1-oxobutan-2-ylamino)-5-fluoro-2-(1-methyl-1H-indazol-4-ylamino)nicotinamide]"
14,10 to 100,"CC[C@@H](Nc1nc(Nc2ccc3c(cnn3C)c2)c(C(N)=O)cc1F)C(N)=O [Example 241, (R)-6-(1-amino-1-oxobutan-2-ylamino)-5-fluoro-2-(1-methyl-1H-indazol-5-ylamino)nicotinamide]"
15,10 to 100,"CC[C@@H](Nc1nc(Nc2ccnc3ccccc23)c(C(N)=O)cc1F)C(N)=O [Example 242, (R)-6-(1-amino-1-oxobutan-2-ylamino)-5-fluoro-2-(quinolin-4-ylamino)nicotinamide]"
16,10 to 100,"CC[C@@H](Nc1nc(Nc2cccc3c2ccn3C)c(C(N)=O)cc1F)C(N)=O [Example 243, (R)-6-(1-amino-1-oxobutan-2-ylamino)-5-fluoro-2-(1-methyl-1H-indol-4-ylamino)nicotinamide]"
17,100 to 1000,"CC[C@@H](Nc1nc(Nc2ccc3c(ccn3C)c2)c(C(N)=O)cc1F)C(N)=O [Example 244, (R)-6-(1-amino-1-oxobutan-2-ylamino)-5-fluoro-2-(1-methyl-1H-indol-5-ylamino)nicotinamide]"
18,10 to 100,"CC[C@@H](Nc1nc(Nc2cccc3ncccc23)c(C(N)=O)cc1F)C(N)=O [Example 245, (R)-6-(1-amino-1-oxobutan-2-ylamino)-5-fluoro-2-(quinolin-5-ylamino)nicotinamide]"
19,10 to 100,"CC(C)C[C@@H](Nc1nc(Nc2ccc3cccnc3c2)c(C(N)=O)cc1F)C(N)=O [Example 246, (R)-6-(1-amino-4-methyl-1-oxopentan-2-ylamino)-5-fluoro-2-(quinolin-7-ylamino)nicotinamide]"
20,10 to 100,"CC(C)C[C@@H](Nc1nc(Nc2cnc3ccccc3c2)c(C(N)=O)cc1F)C(N)=O [Example 247, (R)-6-(1-amino-4-methyl-1-oxopentan-2-ylamino)-5-fluoro-2-(quinolin-3-ylamino)nicotinamide]"
